Measurements as given in patent US9670213B2, “Pteridine ketone derivative and applications thereof as EGFR, BLK, and FLT3 inhibitor” (EAST CHINA UNIVERSITY OF SCIENCE AND TECHNOLOGY, priority 2012, dated 2017).

Tests used:
wild-type EGFR = wild-type EGFR (Homo sapiens (Human), UniProt P00533); experiment: In vitro EGFR kinase activity assay (Z'-Lyte); format: biochemical; details: EGFR WT; read-out: Inhibitory activity on EGFR kinase (IC50, nM) WT;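 also: Ten-point dose series from 5.1×10^−11 to 1.0×10^−6 mol/L, kinase reaction 1.5 h at room temperature, then 1 h development cleaving unphosphorylated peptide, phosphopeptide as 100% phosphorylation control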
Experimental: (§1) Inhibitory effects in vitro of the compounds provided in the present invention on EGFR kinase activity was tested as follows:
(§2) 10 concentration gradients, from 5.1×10^−11 mol/L to 1.0×10^−6 mol/L, were set for all of the compounds to be tested.
(§3) 10 μL of kinase reaction system comprised 2.5 μL of compound solution, 5 μL of Kinase/peptide mixture, and 2.5 μL of ATP solution. 5 μL of phosphopeptide solution was used in place of kinase/peptide mixture as 100% phosphorylation control. […] After thoroughly mixing the solution within the plate, the plate was incubated at room temperature for 1.5 hours. 5 μL of DevelopmentSolution was added into each well, and then the plate was incubated at room temperature for another 1 hour, and non-phosphorylated peptide was cleaved within this period. Finally, the reaction was quenched by adding 5 μL of Stop Reagent. The Plate was measured with EnVision Multilabel Reader (Perkin Elmer). Experimental data were calculated by using GraphPad Prism version 4.0. Each experiment was repeated more than three times.

EGFR-L858R/T790M = EGFR-L858R/T790M (Homo sapiens (Human), UniProt P00533, L858R/T790M); experiment: In vitro EGFR kinase activity assay (Z'-Lyte); format: biochemical; details: read-out: Inhibitory activity on EGFR kinase (IC50, nM) T790M/L858R;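 also: Cell-free kinase reaction with peptide substrate and ATP, 1.5 h at room temperature, development cleaving unphosphorylated peptide, 10-point dilution 0.051–1000 nM, phosphopeptide as 100% phosphorylation control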
Chain of EGFR-L858R/T790M (P00533 25-1210 T790M/L858R): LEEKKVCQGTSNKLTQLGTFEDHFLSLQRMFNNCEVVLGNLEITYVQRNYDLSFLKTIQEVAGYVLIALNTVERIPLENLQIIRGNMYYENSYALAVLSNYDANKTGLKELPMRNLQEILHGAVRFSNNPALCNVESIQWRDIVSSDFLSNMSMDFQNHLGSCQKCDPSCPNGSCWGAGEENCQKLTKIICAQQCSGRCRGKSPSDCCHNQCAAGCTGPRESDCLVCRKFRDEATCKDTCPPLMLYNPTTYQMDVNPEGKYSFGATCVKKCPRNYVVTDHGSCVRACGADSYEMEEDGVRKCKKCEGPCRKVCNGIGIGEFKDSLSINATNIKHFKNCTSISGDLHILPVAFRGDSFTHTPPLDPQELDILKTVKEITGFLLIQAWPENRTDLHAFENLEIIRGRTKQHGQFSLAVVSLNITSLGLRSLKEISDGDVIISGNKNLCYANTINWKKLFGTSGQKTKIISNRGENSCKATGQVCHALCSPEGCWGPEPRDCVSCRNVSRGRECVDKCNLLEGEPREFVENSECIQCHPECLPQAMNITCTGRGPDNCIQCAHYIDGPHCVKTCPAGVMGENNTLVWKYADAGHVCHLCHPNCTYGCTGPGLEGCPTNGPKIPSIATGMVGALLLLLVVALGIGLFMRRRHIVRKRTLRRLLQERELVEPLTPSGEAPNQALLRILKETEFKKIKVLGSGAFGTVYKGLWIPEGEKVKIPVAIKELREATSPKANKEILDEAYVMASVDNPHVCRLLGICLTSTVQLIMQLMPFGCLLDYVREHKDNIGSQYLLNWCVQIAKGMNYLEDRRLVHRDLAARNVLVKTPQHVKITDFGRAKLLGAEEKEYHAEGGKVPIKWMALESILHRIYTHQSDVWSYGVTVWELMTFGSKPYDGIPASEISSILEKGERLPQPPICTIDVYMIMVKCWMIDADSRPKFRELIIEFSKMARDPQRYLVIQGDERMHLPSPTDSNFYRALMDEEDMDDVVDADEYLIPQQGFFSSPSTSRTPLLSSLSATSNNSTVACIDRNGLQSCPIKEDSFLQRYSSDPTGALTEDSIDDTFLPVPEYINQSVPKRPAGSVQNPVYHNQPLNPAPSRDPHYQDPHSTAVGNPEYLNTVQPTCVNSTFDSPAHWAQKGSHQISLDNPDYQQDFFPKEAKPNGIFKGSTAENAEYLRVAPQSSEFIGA
Experimental: as §1, §2, §3

Chain of wild-type EGFR (P00533 25-1210): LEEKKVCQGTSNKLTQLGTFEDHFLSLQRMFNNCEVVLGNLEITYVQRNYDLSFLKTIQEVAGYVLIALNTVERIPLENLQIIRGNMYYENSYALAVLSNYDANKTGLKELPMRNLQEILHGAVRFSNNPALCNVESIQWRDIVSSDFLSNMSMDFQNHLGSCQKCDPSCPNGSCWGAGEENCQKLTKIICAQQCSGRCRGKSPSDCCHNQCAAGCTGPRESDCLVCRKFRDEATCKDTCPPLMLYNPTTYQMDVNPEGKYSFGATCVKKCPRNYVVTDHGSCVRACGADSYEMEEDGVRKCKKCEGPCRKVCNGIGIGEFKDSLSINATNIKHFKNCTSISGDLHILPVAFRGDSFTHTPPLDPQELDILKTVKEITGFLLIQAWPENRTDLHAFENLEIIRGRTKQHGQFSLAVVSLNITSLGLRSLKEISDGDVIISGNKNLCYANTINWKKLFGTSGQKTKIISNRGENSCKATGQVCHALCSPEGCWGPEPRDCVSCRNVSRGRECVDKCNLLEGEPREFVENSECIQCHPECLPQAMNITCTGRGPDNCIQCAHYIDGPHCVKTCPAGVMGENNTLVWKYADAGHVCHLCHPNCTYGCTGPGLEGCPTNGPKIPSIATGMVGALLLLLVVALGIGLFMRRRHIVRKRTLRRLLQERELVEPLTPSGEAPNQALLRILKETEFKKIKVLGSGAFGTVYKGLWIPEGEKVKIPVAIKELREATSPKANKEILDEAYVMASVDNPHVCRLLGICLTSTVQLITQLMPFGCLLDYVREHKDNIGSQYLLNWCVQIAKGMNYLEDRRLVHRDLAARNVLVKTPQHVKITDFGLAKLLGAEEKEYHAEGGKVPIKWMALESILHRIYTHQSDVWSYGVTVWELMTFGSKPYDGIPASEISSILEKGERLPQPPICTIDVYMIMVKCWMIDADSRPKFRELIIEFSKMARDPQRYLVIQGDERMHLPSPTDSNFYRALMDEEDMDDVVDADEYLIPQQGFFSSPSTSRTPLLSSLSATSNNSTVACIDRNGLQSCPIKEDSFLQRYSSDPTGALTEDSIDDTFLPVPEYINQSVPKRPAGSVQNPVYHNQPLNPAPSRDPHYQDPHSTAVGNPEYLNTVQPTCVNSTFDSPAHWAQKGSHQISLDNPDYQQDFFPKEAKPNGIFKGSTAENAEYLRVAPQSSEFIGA

Row | IC50 (wild-type EGFR) [nM] | IC50 (EGFR-L858R/T790M) [nM] | SMILES
1 | 1.47 | 0.824 | C=CC(=O)Nc1cccc(-n2c(=O)cnc3cnc(Nc4ccc(N5CCN(C)CC5)cc4)nc32)c1 [Compound 020, N-(3-(2-(4-(4-methyl-1-piperazinyl)-phenylamino)-7-oxo-8(7H)-pteridin-yl)phenyl) acrylamide]
2 | 3.67 | 1.17 | C=CC(=O)Nc1cccc(-n2c(=O)cnc3cnc(Nc4ccc(N5CCN(C)CC5)cc4OC)nc32)c1 [Compound 032, N-(3-(2-(2-methoxy-4-(4-methyl-1-piperazinyl)-phenylamino)-7-oxo-8(7H)-pteridin-yl)phenyl)acrylamide]
